Data reported in patent US10072029B2, “Crystalline form of a proteasome inhibitor” (Millennium Pharmaceuticals, Inc., priority 2015, dated 2018).

Assays:
[1] = Chemical stability assessment, 60/75 stress test, HPLC; assay type: physicochemical
Protocol: The chemical stability assessment was performed on crystalline Pattern B using a 60/75 stress test (The International Conference on Harmonisation of Technical Requirements for Registration of Pharmaceuticals for Human Use, Stability Testing of New Drug Substances and Products, Q1A(R2), 2003). Samples were exposed to 60° C./75% relative humidity condition for 2 weeks and post-stress materials were analyzed by HPLC. Data at time-zero was also collected for all samples and served as references. The following table summarizes stability data obtained (peak area % measured by HPLC) for crystalline Pattern B.

kinases = conditions: panel of kinases; cited from earlier work
receptors = conditions: panel of receptors; cited from earlier work
[2] = target: β2 site of the 20S proteasome (Homo sapiens, UniProt Q99436); conditions: at higher concentrations; cited from earlier work
[3] = target: β1 site of the 20S proteasome (Homo sapiens, UniProt P28072); conditions: at higher concentrations; cited from earlier work

With `CC(C)C[C@H](NC(=O)CNC(=O)c1cc(Cl)ccc1Cl)B1OB([C@H](CC(C)C)NC(=O)CNC(=O)c2cc(Cl)ccc2Cl)OB([C@H](CC(C)C)NC(=O)CNC(=O)c2cc(Cl)ccc2Cl)O1` [Crystalline Pattern B, N,N′,N″-[2,4,6-boroxintriyltris[[(1R)-3-methylbutylidene]imino(2-oxo-2,1-ethanediyl)]]tris(2,5-dichlorobenzamide)] the “% at 1 wk (peak area % measured by HPLC)” value ([1]; 60° C./75% relative humidity, 1 wk) was 94.2%, the “% at 2 wk (peak area % measured by HPLC)” value ([1]; 60° C./75% relative humidity, 2 wk) was 79.5% and the “% at t0 (peak area % measured by HPLC)” value ([1]; time-zero reference) was 99.3%.
For `CC(C)C[C@H](NC(=O)CNC(=O)c1cc(Cl)ccc1Cl)B(O)O` [Ixazomib, [(1R)-1-({[(2,5-dichlorobenzoyl)amino]acetyl}amino)-3-methylbutyl]boronic acid], the IC50 (kinases) is listed as greater than 10 µM, the IC50 (receptors) is listed as greater than 10 µM and the “inhibition of the activity of the β2 site” value [2] is listed as “inhibits the activity”. For the same compound, the “inhibition of the activity of the β1 site” value [3] was “inhibits the activity”.
